Patent US20220117938A1, “COMBINATON THERAPY WITH A DON PRODRUG AND AN IMMUNE CHECKPOINT INHIBITOR” (DRACEN PHARMACEUTICALS, INC., priority 2019, published 2022)

Tested on: Ninety four (94) cell lines and PBMC
Experiment: Cell viability assay, SRB staining, 94 cell lines and PBMC (Example 7, Experiment 2)
Assay type: cell-based
Experimental: Ninety four (94) cell lines were seeded at a density varying from 500 to 7000 cells/well depending on their growth characteristics. PBMC were seeded at the density 50,000-100,000 cells/well. Cells were incubated for 48 h prior to compound treatment. Compound 1 and DON were evaluated at a concertation range of 1 nM up to 100 μM. Compound 1 dilutions in DMSO and DON dilutions in PBS were performed in 96-well 0.5 mL plates (Greiner Bio-One, Germany). Compounds were then diluted 1:100 in RPMI medium. […] of cells were treated by mixing with 10 μL of the compound-containing media (resulting in a final DMSO concentration of 0.1%). The cells were allowed to grow at 37° C. for 120 h. Cells were fixed to the surface by addition of 10% TCA (for adherent growing cells) or 50% TCA (for semi-adherent growing cells or cells growing in suspension). After an hour of incubation at 4° C., plates were washed twice with 400 μL of deionized water and dried. Cells were then stained with 100 μL of 0.04% wt/v SRB. The plates were incubated at room temperature for at least 30 min and washed six times with 1% acetic acid to remove unbound stain. The plates were left to dry at room temperature and bound SRB was solubilized with 100 μL of 10 mM Tris base. Optical density was measured at 492, 520 and 560 nm using a Deelux-LED96 plate reader (Deelux Labortechnik GmbH, Germany).
Cell lines were purchased directly from the ATCC, NCI, CLS, and DSMZ cell line collections. A master bank and working aliquots were prepared. Cells used for the study had undergone less than 20 passages. To rule out potential contamination or wrong assignment, all cell lines were tested by STR analysis. Absence of mycoplasma contamination was confirmed for all cell lines used in the studies.
The cell lines were grown in the media recommended by the suppliers in the presence of 100 U/mL penicillin and 100 μg/mL streptomycin supplied with 10% FCS (PAA, Germany). RPMI 1640, DMEM, and MEM Earle's medium were from PAA (Coelbe, Germany), supplements 2 mM L-glutamine, 1 mM Na-pyruvate and 1% NEAA were from PAA (Coelbe, Germany), 2.5% horse serum, hydrocortisone, transferin, beta-estradiol, selenite and 1 U/mL insulin from Sigma-Aldrich (Munich, Germany). RPMI medium was used for culturing the following cell lines: 5637, 22RV1, 7860, A2780, A431, A549, ACHN, ASPC1, BT20, BXPC3, CAKI1, CLS439, COLO205, COLO678, DLD1, DU145, EFO21, EJ28, HCT15, HS578T, IGROV1, JAR, LOVO, MCF7, MDA MB231, MDA MB435, MDA MB436, MDA MB468, MHHES1, MT3, NCI H292, NCI H358M, NCI H460, NCIH82, OVCAR3, OVCAR4, PANC 1005 (addition of insulin), PBMC, PC3, RDES, SF268, SF295, SKBR3, SK MEL28, SKMEL5, SKOV3, SW620, U2OS, UMUC3, and U031.
DMEM medium was used to culture A204, A375, A673, C33A, CASKI, HCT116, HEPG2, HS729, HT29, J82, MG63, MIAPACA2 (addition of horse serum), PANC1, PLCPRF5, RD, SAOS2, SKLMS1, SKNAS, SNB75, T24, and TE671.
MEM Earle's medium was used for CACO2, CALU6, HEK293, HELA, HT1080, IMR90, JEG3, JIMT1, SKHEP1, SKNSH, and U87MG. Cell seeding conditions were optimized for each cell line. The cell seeding density varied from 500 to 7000 cells/well depending on their growth characteristics. Peripheral blood mononuclear cells (PBMC) were freshly isolated from whole blood of an anonymous donor through density gradient centrifugation using Ficoll solution (d=1.077). In short, blood was diluted 1:1 with PBS and carefully placed on the Ficoll. After centrifugation 1000×g for 15 min (braking rate 0), the ring containing mainly leucocytes was collected in PBS followed by three times washing with PBS to reduce the platelets. PBMC were seeded at the density 50,000-100,000 cells/well. Cells were grown in 5% CO2 atmosphere in a NB-203XXL incubator (N-BIOTEK Inc., Korea).
Ninety-four cell lines were tested in parallel. Cell growth and treatment were performed in 96 well microtitre plates CELLSTAR® (Greiner Bio-One, Germany). […]

[1] = Homo sapiens, 22Rv1, 22RV1, prostate
[2] = Homo sapiens, 786-0, 786O, kidney
[3] = Homo sapiens, A204, A204, muscle
[4] = Homo sapiens, A673, A673, muscle
[5] = Homo sapiens, A2780, A2780, ovary
[6] = Homo sapiens, A-375, A375, skin
[7] = Homo sapiens, A-431, A431, skin
[8] = Homo sapiens, ASPC1, ASPC1, pancreas
[9] = Homo sapiens, BT-20, BT20, breast
[10] = Homo sapiens, C-33-A, C33A, endometrial
[11] = Homo sapiens, CAKI-1, CAKI1, kidney
[12] = Homo sapiens, COLO 205, COLO205, colon
[13] = Homo sapiens, COLO-678, COLO678, colon
[14] = Homo sapiens, Ca-Ski, CASKI, endometrial
[15] = Homo sapiens, Caco-2, CACO2, colon
[16] = Homo sapiens, Calu-6, CALU6, lung
[17] = Homo sapiens, DLD-1, DLD1, colon
[18] = Homo sapiens, DU-145, DU145, prostate
[19] = Homo sapiens, EFO-21, EFO21, ovary
[20] = Homo sapiens, EJ-28, EJ28, bladder
[21] = Homo sapiens, Granta-519, GRANTA-519, hematological
[22] = Homo sapiens, HCT-15, HCT15, colon
[23] = Homo sapiens, HCT-116, HCT116, colon
[24] = Homo sapiens, HEK293, HEK293, kidney
[25] = Homo sapiens, HL-60, HL-60, hematological
[26] = Homo sapiens, HT-29, HT29, colon
[27] = Homo sapiens, HT-1080, HT1080, connective tissue
[28] = Homo sapiens, HeLa, endometrial
[29] = Homo sapiens, HepG2, HEPG2, liver
[30] = Homo sapiens, IGROV-1, IGROV1, ovary
[31] = Homo sapiens, JEG-3, JEG3, placenta
[32] = Homo sapiens, JIMT-1, JIMT1, breast
[33] = Homo sapiens, K562, K-562, hematological
[34] = Homo sapiens, Kasumi 1, KASUMI-1, hematological
[35] = Homo sapiens, L-363, L-363, hematological
[36] = Homo sapiens, MCF7, MCF7, breast
[37] = Homo sapiens, MDA-MB-231, MDAMB231, breast
[38] = Homo sapiens, MDA-MB-435, MDAMB435, skin

Structure (SMILES): [N-]=[N+]=CC(=O)CC[C@H](N)C(=O)O [DON, 6-Diazo-5-oxo-L-norleucine, reference compound]
- IC50 (5637, bladder): 0.881 µM
- IC50 (CLS439, bladder): 7.82 µM
- GI50 [1]: 0.981 µM
- IC50 [1]: 1.04 µM
- GI50 [2]: 2.39 µM
- IC50 [2]: 2.93 µM
- GI50 [3]: 4.99 µM
- IC50 [3]: 17 µM
- GI50 (Homo sapiens, A549, A549, lung): 4.05 µM
- IC50 (Homo sapiens, A549, A549, lung): 4.49 µM
- GI50 [4]: 1.95 µM
- IC50 [4]: 2.2 µM
- GI50 [5]: 3.65 µM
- IC50 [5]: 3.9 µM
- GI50 [6]: 3.15 µM
- IC50 [6]: 3.33 µM
- GI50 [7]: 6.5 µM
- IC50 [7]: 8.52 µM
- GI50 (Homo sapiens, ACHN, kidney): 5.34 µM
- IC50 (Homo sapiens, ACHN, kidney): 6.34 µM
- GI50 [8]: 3.92 µM
- IC50 [8]: 5.58 µM
- GI50 [9]: 16.8 µM
- IC50 [9]: 51.1 µM
- GI50 (Homo sapiens, BXPC-3, BXPC3, pancreas): 1.45 µM
- GI50 [10]: 6.48 µM
- IC50 [10]: 7.04 µM
- GI50 [11]: 1.16 µM
- IC50 [11]: 1.62 µM
- GI50 [12]: 1.32 µM
- IC50 [12]: 2.01 µM
- GI50 [13]: 58.9 µM
- IC50 [13]: 152 µM
- GI50 [14]: 5.49 µM
- IC50 [14]: 6.51 µM
- GI50 [15]: 11.2 µM
- IC50 [15]: 18.6 µM
- GI50 [16]: 6.05 µM
- IC50 [16]: 6.97 µM
- GI50 [17]: 0.906 µM
- IC50 [17]: 1.02 µM
- GI50 [18]: 5.24 µM
- IC50 [18]: 6.16 µM
- GI50 [19]: 6.32 µM
- IC50 [19]: 14.6 µM
- GI50 [20]: 4.19 µM
- IC50 [20]: 4.89 µM
- GI50 [21]: 0.779 µM
- IC50 [21]: 0.812 µM
- GI50 [22]: 1.13 µM
- IC50 [22]: 1.3 µM
- GI50 [23]: 2.06 µM
- IC50 [23]: 2.1 µM
- GI50 [24]: 10.6 µM
- IC50 [24]: 15.2 µM
- GI50 [25]: 1.56 µM
- IC50 [25]: 1.6 µM
- GI50 [26]: 2.89 µM
- IC50 [26]: 3.41 µM
- GI50 [27]: 0.666 µM
- IC50 [27]: 0.795 µM
- GI50 [28]: 8.17 µM
- IC50 [28]: 9.13 µM
- GI50 [29]: 7.3 µM
- IC50 [29]: 8.97 µM
- GI50 (Homo sapiens, Hs-578T, HS578T, breast): 25.1 µM
- GI50 [30]: 6.99 µM
- IC50 [30]: 10.1 µM
- GI50 (Homo sapiens, IMR-90, IMR90, lung): 11.8 µM
- GI50 [31]: 5.79 µM
- IC50 [31]: 6.64 µM
- GI50 [32]: 11.2 µM
- IC50 [32]: 26.8 µM
- GI50 [33]: 1.06 µM
- IC50 [33]: 1.17 µM
- GI50 [34]: 5.17 µM
- IC50 [34]: 12.7 µM
- GI50 [35]: 0.343 µM
- IC50 [35]: 0.522 µM
- GI50 (Homo sapiens, LoVo, colon): 4.36 µM
- IC50 (Homo sapiens, LoVo, colon): 4.66 µM
- GI50 [36]: 2.09 µM
- IC50 [36]: 6.07 µM
- GI50 [37]: 8.37 µM
- IC50 [37]: 13.8 µM
- GI50 [38]: 2.48 µM
- IC50 [38]: 2.66 µM
- GI50 (Homo sapiens, MDA-MB-436, MDAMB436, breast): 13.3 µM
